Species on record: Rattus norvegicus
Assay: Open TG-GATES - Regimen: Daily Repeat
Type: toxicity, organism-based, Sprague-Dawley
Design: regimen Daily Repeat, gender Male, age 6 weeks
Conditions: in vivo, po, route gavage; for APTT / Bas / Eos / Fbg / Hb / Ht / Lym / MCH / MCHC / MCV / Mono / Neu / PT / Plat / RBC / Ret / WBC: tissue Blood; for KIDNEY_L / KIDNEY_R / KIDNEY_TOTAL: tissue Kidney; for LIVER: tissue Liver; for A/G / ALP / ALT / AST / BUN / CRE / Ca / Cl / DBIL / GLC / IP / K / LDH / Na / PL / RALB / TBIL / TC / TG / TP / gamma-GTP: tissue Plasma
[1] = 0 mg/kg, 72 h, dose level Control, time 3 day
[2] = 0 mg/kg, […], dose level Control, time 7 day
[3] = 0 mg/kg, […], dose level Control, time 14 day
[4] = 0 mg/kg, […], dose level Control, time 28 day
[5] = 100 mg/kg, 72 h, dose level Low, time 3 day
[6] = 100 mg/kg, […], dose level Low, time 7 day
[7] = 100 mg/kg, […], dose level Low, time 14 day
[8] = 100 mg/kg, […], dose level Low, time 28 day

COc1ccc(Cl)cc1C(=O)NCCc1ccc(S(=O)(=O)NC(=O)NC2CCCCC2)cc1 [GLYBURIDE]
TERMINAL_BW [1]: 234.5 g
APTT [1]: 19.1 s
Bas [1]: 0%
Eos [1]: 0.8%
Fbg [1]: 225.4 mg/dL
Hb [1]: 13.3 g/dL
Ht [1]: 39.9%
Lym [1]: 81.6%
MCH [1]: 21.1 pg
MCHC [1]: 33.2%
MCV [1]: 63.5 fL
Mono [1]: 2.6%
Neu [1]: 14.6%
PT [1]: 12.1 s
Plat [1]: 124.6 x10_4/uL
RBC [1]: 628.4 x10_4/ul
Ret [1]: 6.8%
WBC [1]: 86.4 x10_2/uL
KIDNEY_L [1]: 1 g
KIDNEY_R [1]: 1 g
KIDNEY_TOTAL [1]: 2 g
LIVER [1]: 11.7 g
A/G [1]: 1.7
ALP [1]: 939.6 IU/L
ALT [1]: 43.2 IU/L
AST [1]: 66.4 IU/L
BUN [1]: 15.2 mg/dL
CRE [1]: 0.4 mg/dL
Ca [1]: 10.9 mg/dL
Cl [1]: 102.4 meq/L
DBIL [1]: 0.1 mg/dL
GLC [1]: 207 mg/dL
IP [1]: 7.4 mg/dL
K [1]: 4.2 meq/L
LDH [1]: 159.2 IU/L
Na [1]: 141 meq/L
PL [1]: 160.2 mg/dL
RALB [1]: 3.5 g/dL
TBIL [1]: 0.2 mg/dL
TC [1]: 86 mg/dL
TG [1]: 92.6 mg/dL
TP [1]: 5.6 g/dL
gamma-GTP [1]: 1.4 IU/L
TERMINAL_BW [2]: 268.9 g
TERMINAL_BW [3]: 320.1 g
TERMINAL_BW [4]: 406.6 g
APTT [2]: 18.2 s
Bas [2]: 0%
Eos [2]: 0.8%
Fbg [2]: 217.8 mg/dL
Hb [2]: 13.7 g/dL
Ht [2]: 40.6%
Lym [2]: 79.8%
MCH [2]: 21.2 pg
MCHC [2]: 33.7%
MCV [2]: 63 fL
Mono [2]: 2.8%
Neu [2]: 16.2%
PT [2]: 12.4 s
Plat [2]: 121.3 x10_4/uL
RBC [2]: 644.2 x10_4/ul
Ret [2]: 5.5%
WBC [2]: 115 x10_2/uL
APTT [3]: 21.1 s
Bas [3]: 0%
Eos [3]: 0.6%
Fbg [3]: 223.6 mg/dL
Hb [3]: 14.1 g/dL
Ht [3]: 41%
Lym [3]: 79.8%
MCH [3]: 20.1 pg
MCHC [3]: 34.3%
MCV [3]: 58.5 fL
Mono [3]: 2.6%
Neu [3]: 16.4%
PT [3]: 12.2 s
Plat [3]: 122.3 x10_4/uL
RBC [3]: 701 x10_4/ul
Ret [3]: 4.3%
WBC [3]: 124.8 x10_2/uL
APTT [4]: 19.9 s
Bas [4]: 0%
Eos [4]: 1%
Fbg [4]: 211 mg/dL
Hb [4]: 15.1 g/dL
Ht [4]: 43.1%
Lym [4]: 83.8%
MCH [4]: 20.1 pg
MCHC [4]: 35.1%
MCV [4]: 57.2 fL
Mono [4]: 2%
Neu [4]: 12.8%
PT [4]: 12.3 s
Plat [4]: 100.6 x10_4/uL
RBC [4]: 753.2 x10_4/ul
Ret [4]: 2.8%
WBC [4]: 133.4 x10_2/uL
KIDNEY_L [2]: 1.2 g
KIDNEY_R [2]: 1.2 g
KIDNEY_TOTAL [2]: 2.3 g
KIDNEY_L [3]: 1.2 g
KIDNEY_R [3]: 1.3 g
KIDNEY_TOTAL [3]: 2.5 g
KIDNEY_L [4]: 1.3 g
KIDNEY_R [4]: 1.4 g
KIDNEY_TOTAL [4]: 2.7 g
LIVER [2]: 12.7 g
LIVER [3]: 14 g
LIVER [4]: 17.3 g
A/G [2]: 1.5
ALP [2]: 926.8 IU/L
ALT [2]: 36.6 IU/L
AST [2]: 59.8 IU/L
BUN [2]: 16.8 mg/dL
CRE [2]: 0.4 mg/dL
Ca [2]: 10.8 mg/dL
Cl [2]: 102.8 meq/L
DBIL [2]: 0.1 mg/dL
GLC [2]: 217 mg/dL
IP [2]: 7.3 mg/dL
K [2]: 3.9 meq/L
LDH [2]: 129.6 IU/L
Na [2]: 141.6 meq/L
PL [2]: 152 mg/dL
RALB [2]: 3.3 g/dL
TBIL [2]: 0.2 mg/dL
TC [2]: 71.6 mg/dL
TG [2]: 128.2 mg/dL
TP [2]: 5.5 g/dL
gamma-GTP [2]: 1 IU/L
A/G [3]: 1.5
ALP [3]: 785.6 IU/L
ALT [3]: 36.2 IU/L
AST [3]: 62.6 IU/L
BUN [3]: 14 mg/dL
CRE [3]: 0.5 mg/dL
Ca [3]: 10.7 mg/dL
Cl [3]: 102.6 meq/L
DBIL [3]: 0.1 mg/dL
GLC [3]: 199.8 mg/dL
IP [3]: 6.6 mg/dL
K [3]: 4 meq/L
LDH [3]: 154.6 IU/L
Na [3]: 140.4 meq/L
PL [3]: 155.2 mg/dL
RALB [3]: 3.6 g/dL
TBIL [3]: 0.2 mg/dL
TC [3]: 74.6 mg/dL
TG [3]: 104.8 mg/dL
TP [3]: 6 g/dL
gamma-GTP [3]: 1.2 IU/L
A/G [4]: 1.5
ALP [4]: 561.8 IU/L
ALT [4]: 31.4 IU/L
AST [4]: 60 IU/L
BUN [4]: 16.8 mg/dL
CRE [4]: 0.5 mg/dL
Ca [4]: 10.5 mg/dL
Cl [4]: 103.8 meq/L
DBIL [4]: 0.1 mg/dL
GLC [4]: 214 mg/dL
IP [4]: 6.6 mg/dL
K [4]: 3.9 meq/L
LDH [4]: 143.2 IU/L
Na [4]: 141.2 meq/L
PL [4]: 143.8 mg/dL
RALB [4]: 3.5 g/dL
TBIL [4]: 0.2 mg/dL
TC [4]: 75.4 mg/dL
TG [4]: 91.2 mg/dL
TP [4]: 5.9 g/dL
gamma-GTP [4]: 0.8 IU/L
TERMINAL_BW [5]: 227.4 g
APTT [5]: 20.1 s
Bas [5]: 0%
Eos [5]: 1%
Fbg [5]: 222.4 mg/dL
Hb [5]: 13.6 g/dL
Ht [5]: 40.3%
Lym [5]: 83%
MCH [5]: 21.4 pg
MCHC [5]: 33.6%
MCV [5]: 63.7 fL
Mono [5]: 2.6%
Neu [5]: 12.8%
PT [5]: 12.2 s
Plat [5]: 115.5 x10_4/uL
RBC [5]: 632.6 x10_4/ul
Ret [5]: 5.2%
WBC [5]: 104.4 x10_2/uL
KIDNEY_L [5]: 1 g
KIDNEY_R [5]: 1 g
KIDNEY_TOTAL [5]: 1.9 g
LIVER [5]: 10.6 g
A/G [5]: 1.7
ALP [5]: 952 IU/L
ALT [5]: 42 IU/L
AST [5]: 65.4 IU/L
BUN [5]: 15 mg/dL
CRE [5]: 0.4 mg/dL
Ca [5]: 10.9 mg/dL
Cl [5]: 103 meq/L
DBIL [5]: 0.1 mg/dL
GLC [5]: 187.8 mg/dL
IP [5]: 6.9 mg/dL
K [5]: 3.8 meq/L
LDH [5]: 183.6 IU/L
Na [5]: 141.6 meq/L
PL [5]: 153.8 mg/dL
RALB [5]: 3.5 g/dL
TBIL [5]: 0.1 mg/dL
TC [5]: 75.4 mg/dL
TG [5]: 113 mg/dL
TP [5]: 5.6 g/dL
gamma-GTP [5]: 1.4 IU/L
TERMINAL_BW [6]: 265.1 g
TERMINAL_BW [7]: 301.6 g
TERMINAL_BW [8]: 376.3 g
APTT [6]: 19.7 s
Bas [6]: 0.2%
Eos [6]: 0.8%
Fbg [6]: 223 mg/dL
Hb [6]: 13 g/dL
Ht [6]: 38.5%
Lym [6]: 79.4%
MCH [6]: 21 pg
MCHC [6]: 33.7%
MCV [6]: 62.3 fL
Mono [6]: 3%
Neu [6]: 16.4%
PT [6]: 12.5 s
Plat [6]: 124.6 x10_4/uL
RBC [6]: 618 x10_4/ul
Ret [6]: 5.6%
WBC [6]: 123.7 x10_2/uL
APTT [7]: 19.3 s
Bas [7]: 0%
Eos [7]: 1%
Fbg [7]: 224.6 mg/dL
Hb [7]: 14.3 g/dL
Ht [7]: 40.2%
Lym [7]: 78%
MCH [7]: 21 pg
MCHC [7]: 35.6%
MCV [7]: 59.2 fL
Mono [7]: 2.2%
Neu [7]: 17.8%
PT [7]: 12.3 s
Plat [7]: 122 x10_4/uL
RBC [7]: 679.6 x10_4/ul
Ret [7]: 3.9%
WBC [7]: 137.4 x10_2/uL
APTT [8]: 23 s
Bas [8]: 0%
Eos [8]: 0.8%
Fbg [8]: 207.8 mg/dL
Hb [8]: 15.2 g/dL
Ht [8]: 43.5%
Lym [8]: 82.6%
MCH [8]: 19.3 pg
MCHC [8]: 34.9%
MCV [8]: 55.4 fL
Mono [8]: 2.4%
Neu [8]: 13.4%
PT [8]: 12.7 s
Plat [8]: 105.5 x10_4/uL
RBC [8]: 786.4 x10_4/ul
Ret [8]: 2.6%
WBC [8]: 115.6 x10_2/uL
KIDNEY_L [6]: 1.1 g
KIDNEY_R [6]: 1.1 g
KIDNEY_TOTAL [6]: 2.2 g
KIDNEY_L [7]: 1.1 g
KIDNEY_R [7]: 1.2 g
KIDNEY_TOTAL [7]: 2.3 g
KIDNEY_L [8]: 1.3 g
KIDNEY_R [8]: 1.3 g
KIDNEY_TOTAL [8]: 2.6 g
LIVER [6]: 12.7 g
LIVER [7]: 13 g
LIVER [8]: 15.8 g
A/G [6]: 1.5
ALP [6]: 816.2 IU/L
ALT [6]: 35.2 IU/L
AST [6]: 60.2 IU/L
BUN [6]: 15.8 mg/dL
CRE [6]: 0.4 mg/dL
Ca [6]: 11 mg/dL
Cl [6]: 102.4 meq/L
DBIL [6]: 0.1 mg/dL
GLC [6]: 196 mg/dL
IP [6]: 7.3 mg/dL
K [6]: 4.1 meq/L
LDH [6]: 155.2 IU/L
Na [6]: 140.6 meq/L
PL [6]: 151.8 mg/dL
RALB [6]: 3.4 g/dL
TBIL [6]: 0.2 mg/dL
TC [6]: 78.4 mg/dL
TG [6]: 116.4 mg/dL
TP [6]: 5.7 g/dL
gamma-GTP [6]: 1.2 IU/L
A/G [7]: 1.4
ALP [7]: 1042 IU/L
ALT [7]: 37 IU/L
AST [7]: 63.6 IU/L
BUN [7]: 15.2 mg/dL
CRE [7]: 0.5 mg/dL
Ca [7]: 10.7 mg/dL
Cl [7]: 102.2 meq/L
DBIL [7]: 0.1 mg/dL
GLC [7]: 193.2 mg/dL
IP [7]: 6.4 mg/dL
K [7]: 3.9 meq/L
LDH [7]: 138.2 IU/L
Na [7]: 140.2 meq/L
PL [7]: 166.4 mg/dL
RALB [7]: 3.5 g/dL
TBIL [7]: 0.2 mg/dL
TC [7]: 81.2 mg/dL
TG [7]: 116.8 mg/dL
TP [7]: 6 g/dL
gamma-GTP [7]: 0.6 IU/L
A/G [8]: 1.4
ALP [8]: 594 IU/L
ALT [8]: 33.6 IU/L
AST [8]: 58.4 IU/L
BUN [8]: 14.6 mg/dL
CRE [8]: 0.5 mg/dL
Ca [8]: 10.4 mg/dL
Cl [8]: 103.6 meq/L
DBIL [8]: 0.09 mg/dL
GLC [8]: 213.6 mg/dL
IP [8]: 6.4 mg/dL
K [8]: 3.9 meq/L
LDH [8]: 147 IU/L
Na [8]: 141 meq/L
PL [8]: 137.4 mg/dL
RALB [8]: 3.4 g/dL
TBIL [8]: 0.2 mg/dL
TC [8]: 69 mg/dL
TG [8]: 98.8 mg/dL
TP [8]: 5.8 g/dL
gamma-GTP [8]: 1.4 IU/L

From ChEMBL document CHEMBL3885861, “Open TG-GATES”
